Assay results reported in patent publication US12559489B2, “Antagonistic small molecule compound having toll-like receptor 7/9 inhibitory function” (AJOU UNIVERSITY INDUSTRY-ACADEMIC COOPERATION FOUNDATION, priority 2020, dated 2026).
pIC50: −log10 of the molar value. Read-outs that look alike come from different tables or passages of the source.

Columns and labels:
TLR7 = biological target: T1, TLR7 (Mus musculus, UniProt P58681); assay: Inhibition of IMQ (TLR7 agonist)-induced TNF-α secretion in RAW264.7 cells, ELISA; format: cell-based, murine; details: for inhibition of secretion of TLR7-induced TNF-α: in the presence of IMQ, 1, 10 or 50 μM, ELISA (FIG. 7B and 7C)
T1 construct: host or cells: RAW264.7 murine macrophages
T1 sequence (P58681 27-1050): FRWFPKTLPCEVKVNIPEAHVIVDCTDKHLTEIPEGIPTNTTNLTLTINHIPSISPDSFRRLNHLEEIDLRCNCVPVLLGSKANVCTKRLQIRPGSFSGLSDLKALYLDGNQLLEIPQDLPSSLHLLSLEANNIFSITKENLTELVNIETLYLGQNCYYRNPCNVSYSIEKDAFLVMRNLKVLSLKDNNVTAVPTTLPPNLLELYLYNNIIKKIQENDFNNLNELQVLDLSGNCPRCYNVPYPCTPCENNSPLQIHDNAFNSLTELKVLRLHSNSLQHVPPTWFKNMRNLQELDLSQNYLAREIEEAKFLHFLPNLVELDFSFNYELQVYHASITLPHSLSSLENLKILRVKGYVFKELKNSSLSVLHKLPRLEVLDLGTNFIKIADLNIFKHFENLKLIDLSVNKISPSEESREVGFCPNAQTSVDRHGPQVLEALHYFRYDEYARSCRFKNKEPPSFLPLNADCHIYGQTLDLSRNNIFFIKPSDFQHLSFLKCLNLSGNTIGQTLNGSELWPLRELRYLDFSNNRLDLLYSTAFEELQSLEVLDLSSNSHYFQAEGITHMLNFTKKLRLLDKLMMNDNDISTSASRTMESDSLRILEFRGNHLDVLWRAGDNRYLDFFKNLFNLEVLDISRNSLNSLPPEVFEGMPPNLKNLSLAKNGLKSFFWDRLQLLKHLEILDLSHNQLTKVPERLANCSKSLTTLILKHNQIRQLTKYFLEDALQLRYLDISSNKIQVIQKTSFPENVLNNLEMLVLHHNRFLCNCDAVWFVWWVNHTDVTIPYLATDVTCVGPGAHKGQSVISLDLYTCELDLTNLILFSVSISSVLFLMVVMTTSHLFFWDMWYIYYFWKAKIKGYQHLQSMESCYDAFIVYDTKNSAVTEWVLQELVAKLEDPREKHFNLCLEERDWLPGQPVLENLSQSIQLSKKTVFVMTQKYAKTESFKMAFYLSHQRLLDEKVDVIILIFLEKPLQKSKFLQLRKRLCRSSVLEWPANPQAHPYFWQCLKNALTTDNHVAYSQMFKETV
Method: (§1) RAW264.7 cells, which are murine macrophages (ATCC, Manassas, VA, USA), were incubated in low-glucose DMEM (Thermo Fisher Scientific Inc.) supplemented with 10% FBS, 100 IU/ml of penicillin and 100 μg/ml of streptomycin in an incubator. Imiquimod (IMQ; TLR7 agonist) and CpG-ODN (ODN 2395; TLR9 agonist) were obtained from InvivoGen (San Diego, CA, USA), and hydroxychloroquine (HCQ; endosomal TLRs inhibitor) was obtained from Sigma Aldrich Co. (St. Louis, MO, USA).
(§2) RAW264.7 cells were incubated along with 1, 10 or 50 μM of a compound. After 24 hours, MTT (3-(4,5-dimethylthiazol-2-yl)-2,5-diphenyltetrazolium bromide) assay and enzyme-linked immunosorbent assay (ELISA) were sequentially performed.
(§3) ODN 2395 was used as a ligand to activate TLR9 and IMQ was used to induce TLR7 activity. The inhibitory effects of TAC5-050 and TAC5-051 against TLR9 or TLR7 were determined. HCQ, which is known to inhibit endosomal TLRs, was used as a control group. Since the median inhibitory concentration was expected to range from 50 and 20 μM, the concentration range was set to decrease by half from the high concentration (50 μM) to the low concentration ([…]).
(§4) RAW264.7 cells (2×10^4 cells/well) were treated with small molecule compounds and HCQ for 1 hour (0.25% DMSO), incubated and then treated with ODN 2395 (0.5 μM) or IMQ (1 μg/ml) for 4 hours. Then, the ELISA for detecting mTNF-α was performed in accordance with the following protocol: • 1. Transfer samples from 96 well cell culture plate to elisa coated plate) and incubate for 2 h • 2. Treat detection antibody and incubate for 1 h • 3. Treat HRP and incubate for 30 min • 4. Treat TMB and read the samples by using micro-plate reader machine

RAW264.7 cells = assay: MTT cytotoxicity assay in RAW264.7 cells; format: cell-based, murine; details: RAW264.7 cells, 1, 10 and 50 μM, 24 hours (FIG. 7A)
Method: as §1, §2

TLR9 = biological target: T2, TLR9 (Mus musculus, UniProt Q9EQU3); assay: Inhibition of ODN 2395 (TLR9 agonist)-induced TNF-α secretion in RAW264.7 cells, ELISA; format: cell-based, murine; details: for inhibition of secretion of TLR9-induced TNF-α: in the presence of ODN 2395, 1, 10 or 50 μM, ELISA (FIG. 7B and 7C)
T2 construct: host or cells: RAW264.7 murine macrophages
T2 sequence (Q9EQU3 26-1032): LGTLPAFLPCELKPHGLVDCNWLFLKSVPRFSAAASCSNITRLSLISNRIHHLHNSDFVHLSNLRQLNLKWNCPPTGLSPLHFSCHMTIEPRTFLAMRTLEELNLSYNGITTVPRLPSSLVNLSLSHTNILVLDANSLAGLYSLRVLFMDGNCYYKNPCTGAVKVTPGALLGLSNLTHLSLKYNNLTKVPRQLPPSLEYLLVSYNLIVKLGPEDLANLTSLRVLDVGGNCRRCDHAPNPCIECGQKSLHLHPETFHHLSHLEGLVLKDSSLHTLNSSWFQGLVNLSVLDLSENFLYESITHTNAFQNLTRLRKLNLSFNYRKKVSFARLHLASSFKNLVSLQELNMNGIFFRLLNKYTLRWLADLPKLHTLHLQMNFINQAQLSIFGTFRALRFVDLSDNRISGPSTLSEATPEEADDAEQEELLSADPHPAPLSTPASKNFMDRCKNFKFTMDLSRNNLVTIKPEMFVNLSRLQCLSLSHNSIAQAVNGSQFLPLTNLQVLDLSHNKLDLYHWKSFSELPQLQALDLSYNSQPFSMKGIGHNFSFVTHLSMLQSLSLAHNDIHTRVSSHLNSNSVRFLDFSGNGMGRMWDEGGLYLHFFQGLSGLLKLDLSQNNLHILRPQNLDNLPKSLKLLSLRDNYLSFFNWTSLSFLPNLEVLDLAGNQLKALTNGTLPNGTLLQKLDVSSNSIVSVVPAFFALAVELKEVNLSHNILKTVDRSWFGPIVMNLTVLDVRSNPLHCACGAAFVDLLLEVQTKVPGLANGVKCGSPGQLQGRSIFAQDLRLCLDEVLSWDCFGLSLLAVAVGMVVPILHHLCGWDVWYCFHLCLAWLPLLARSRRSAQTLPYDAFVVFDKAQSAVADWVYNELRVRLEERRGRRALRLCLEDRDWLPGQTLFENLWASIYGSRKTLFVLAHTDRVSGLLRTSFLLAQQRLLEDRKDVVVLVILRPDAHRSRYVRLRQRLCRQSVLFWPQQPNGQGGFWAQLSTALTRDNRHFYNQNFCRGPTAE
Method: as §1, §2, §3, §4

[1] = Solubility noted during preparation; format: physicochemical; details: remark in the preparation example, no medium stated
Method: 0.5 g (4.2 mmol) of […] was dissolved in 50 ml of MC, and 2.8 g (21 mmol, 5 eq) of AlCl3 was added thereto, followed by stirring at room temperature for 1 hour. A solution of 2.28 g (12.3 mmol) of p-nitrobenzoyl chloride in 10 ml of MC was added dropwise to the reaction solution at room temperature. The mixture was stirred overnight. When the reaction was completed, the reactor containing the concentrated residue was placed in an ice bath, 30 g of ice water was added thereto, and then stirred for 1 hour. Then, the result was filtered and washed with water. The solid was dissolved in 30 mL of MC and 10 mL of MeOH, and washed with 30 mL of Sat'd NaHCO3, and the layers were separated. The MC layer was washed with water, and the organic layer was dried over MgSO4, filtered, and concentrated under reduced pressure. After refluxing in 20 ml of IPA, the result was stirred at room temperature for 1 hour and then filtered. The solid was refluxed in 20 ml of MC, stirred at room temperature for 1 hour, and filtered to prepare 85 mg of (3-nitro-phenyl)-(1H-pyrrolo[2,3-b]pyridin-3-yl)-methanone (yield: 7.5%). However, it was not easy to remove impurities, so the yield was low and solubility was also low.

Row | SMILES | inhibition of secretion of TLR7-induced TNF-α (TLR7; RAW264.7 cells) | cytotoxicity (MTT assay) (RAW264.7 cells) | inhibition of secretion of TLR9-induced TNF-α (TLR9; RAW264.7 cells) | also measured
1 | CC(C)n1cc(C(=O)c2ccccc2)c2cccnc21 [TAC5-050, (1-Isopropyl-1H-pyrrolo[2,3-b]pyridin-3-yl)-phenyl-methanone] | inhibited the secretion of TLR7- or TLR9-induced TNF-α in a dose-dependent manner | non-cytotoxic | inhibited the secretion of TLR7- or TLR9-induced TNF-α in a dose-dependent manner | pIC50 (TLR7): 4.62; pIC50 (TLR9): 4.27
2 | O=C(c1ccc(Cl)c(Cl)c1)c1c[nH]c2ncccc12 [TAC5-053, (3,4-Dichloro-phenyl)-(1H-pyrrolo[2,3-b]pyridin-3-yl)-methanone] |  | cytotoxic |  | 
3 | O=C(c1ccccc1)c1cn(S(=O)(=O)c2ccccc2)c2ncccc12 [TAC5-051, (1-Benzenesulfonyl-1H-pyrrolo[2,3-b]pyridin-3-yl)-phenyl-methanone] | inhibited the secretion of TLR7- or TLR9-induced TNF-α in a dose-dependent manner | non-cytotoxic | inhibited the secretion of TLR7- or TLR9-induced TNF-α in a dose-dependent manner | pIC50 (TLR7; RAW264.7 cells, compound 1 hour, then IMQ (1 μg/ml) 4 hours, mTNF-α ELISA (FIG. 9), read-out: IC50 for TLR7): 4.96; pIC50 (TLR9; RAW264.7 cells, compound 1 hour, then ODN 2395 (0.5 μM) 4 hours, mTNF-α ELISA (FIG. 8), read-out: IC50 for TLR9): 4.86
4 | O=C(c1cccc([N+](=O)[O-])c1)c1c[nH]c2ncccc12 [TAC5-052, (3-Nitro-phenyl)-(1H-pyrrolo[2,3-b]pyridin-3-yl)-methanone] |  | cytotoxic |  | solubility [1]: low
5 | O=C(c1ccccc1)c1c[nH]c2ncc(Cl)cc12 [TAC5-055, (5-Chloro-1H-pyrrolo[2,3-b]pyridin-3-yl)-phenyl-methanone] |  | cytotoxic |  | 
6 | O=C(c1ccc(Cl)c(F)c1)c1c[nH]c2ncccc12 [TAC5-054, (4-Chloro-3-fluoro-phenyl)-(1H-pyrrolo[2,3-b]pyridin-3-yl)-methanone] |  | cytotoxic |  | 
